These results are taken from paper PMC9136617 (Acta Pharmaceutica Sinica. B, 2022).

pKd: −log10 of the molar value.

One data set concerns the target T1, PPARα (Homo sapiens, UniProt Q07869).
T1 sequence (Q07869 1-468): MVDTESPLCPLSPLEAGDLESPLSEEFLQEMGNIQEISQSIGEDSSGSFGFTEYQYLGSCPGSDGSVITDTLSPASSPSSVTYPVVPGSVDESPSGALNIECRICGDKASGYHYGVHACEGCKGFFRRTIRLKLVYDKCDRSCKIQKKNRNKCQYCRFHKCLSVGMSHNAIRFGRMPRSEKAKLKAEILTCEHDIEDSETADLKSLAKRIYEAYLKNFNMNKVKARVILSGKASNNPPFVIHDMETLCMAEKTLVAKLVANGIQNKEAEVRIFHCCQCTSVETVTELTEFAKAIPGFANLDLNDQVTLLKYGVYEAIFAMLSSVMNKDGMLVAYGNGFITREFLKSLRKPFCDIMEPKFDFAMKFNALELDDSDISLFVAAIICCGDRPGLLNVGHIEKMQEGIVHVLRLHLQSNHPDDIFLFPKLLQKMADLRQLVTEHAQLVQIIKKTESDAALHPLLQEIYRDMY
The data set can be described thus: SPR. Type of data set: binding.

The next data set deals with CYP2E1 (Homo sapiens, UniProt P05181). The data set can be described thus: incubation with recombinant human CYP2E1, metabolites by LC–MS/MS. Type of data set: biochemical.
Chain of CYP2E1 (P05181 whole entry): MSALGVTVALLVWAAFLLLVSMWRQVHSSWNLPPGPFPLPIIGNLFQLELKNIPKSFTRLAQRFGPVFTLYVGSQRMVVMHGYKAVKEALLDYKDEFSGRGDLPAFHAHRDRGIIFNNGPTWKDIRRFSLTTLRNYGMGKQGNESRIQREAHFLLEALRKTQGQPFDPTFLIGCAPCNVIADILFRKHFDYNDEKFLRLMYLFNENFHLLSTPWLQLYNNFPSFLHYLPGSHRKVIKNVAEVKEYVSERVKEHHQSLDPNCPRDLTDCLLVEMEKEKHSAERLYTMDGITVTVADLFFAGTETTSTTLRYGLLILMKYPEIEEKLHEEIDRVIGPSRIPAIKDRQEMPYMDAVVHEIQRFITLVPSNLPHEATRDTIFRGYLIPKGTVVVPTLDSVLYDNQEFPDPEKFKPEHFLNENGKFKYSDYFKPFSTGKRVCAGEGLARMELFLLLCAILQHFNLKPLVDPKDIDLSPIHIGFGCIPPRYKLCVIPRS

One may read the pKd as the Kd on a negative log10 scale, so that one unit is a factor of ten. For the compound `CCCCC/C=C\C/C=C\C/C=C\C/C=C\CCCC(=O)O` [AA, arachidonic acid], on PPARα, the pKd was 4.79. The “incubation with recombinant human CYP2E1, metabolites by LC-MS/MS” value (“incubation with recombinant human CYP2E1” for short) at CYP2E1 is “All the compounds were metabolized by recombinant CYP2E1 and their metabolites identified by LC–MS/MS”.

With `CC/C=C\C/C=C\C/C=C\C/C=C\C/C=C\C/C=C\CCC(=O)O` [DHA, docosahexaenoic acid], on PPARα, the pKd was 4.84. Further, the “incubation with recombinant human CYP2E1” value at CYP2E1 is “All the compounds were metabolized by recombinant CYP2E1 and their metabolites identified by LC–MS/MS”.

For `CCCCC/C=C\C/C=C\CCCCCCCC(=O)O` [LCA, 9,12-linoleic acid], at PPARα, the pKd is 4.62. The “incubation with recombinant human CYP2E1” value on CYP2E1 is “metabolic sites on LCA by recombinant CYP2E1 protein were at C-6 to C-10, C-16, and C-17”.
